Reference: patent publication US6262116A, “Transcription therapy for cancers” (Sloan-Kettering Institute for Cancer Research, priority 1998, dated 2001)

Legend:
[1] = system: acute promyelocytic leukemia; format: in vivo, human; details: Jan. `98 (first line)
Excerpt: The patient used for clinical study is a person who was diagnosed with acute promyelocytic leukemia in 1994.

[2] = system: PML-retinoic acid receptor-α; assay: 3XRARE-Luc reporter transfection assay in 293T cells, PML-RARα; format: cell-based, human
Procedure: (§1) The experiment was performed in medium reconstituted with serum not depleted of endogenous retinoids. Luciferase activity was measured in a scintillation counter and normalized with the internal β-galactosidase standard. […] Note that in panels A and B luciferase activity is expressed by different scales.
(§2) Luciferase activity was normalized with the internal β-galactosidase standard. Values represent the averages of two independent transfections.
(§3) 293T cells and KG1 cells were transfected by calcium phosphate precipitation, and by electroporation as already described^25, and luciferase activity of each sample was normalized against internal control β-galactosidase activity^25.
(§4) Nuclear receptor co-repressors form complexes with histone deacetylases (HDAC1 or 2), resulting in nucleosome assembly and transcriptional repression^15.

[3] = system: PLZF-retinoic acid receptor-α; assay: 3XRARE-Luc reporter transfection assay in 293T cells, PLZF-RARα; format: cell-based, human
Procedure: as §1, §2, §3, §4

[4] = system: PLZF-retinoic acid receptor-α bone marrow leukaemic cells; assay: Myeloid differentiation (NBT assay) of PLZF-RARα bone marrow leukaemic cells; format: cell-based, mouse; details: Trichostatin A alone (5 ng/ml)
Procedure: (§5) Myeloid differentiation was evaluated by performing the nitroblue tetrazolium (NBT) assay, and cell proliferation by measuring DNA synthesis quantitating incorporation of ^3 H-thymidine.
(§6) Differentiation was evaluated performing the nitroblue tetrazolium (NBT) assay and morphological differential count^32. Proliferation of bone marrow cells was evaluated by measuring DNA synthesis quantitating incorporation of ^3 H-thymidine (Amersham). Bone marrow cells were plated at a density of 2×10^6 cells/ml and were pulsed with ^3 H-thymidine at a final concentration of […].

[5] = system: PLZF-retinoic acid receptor-α bone marrow leukaemic cells; assay: Proliferation (3H-thymidine incorporation) of PLZF-RARα bone marrow leukaemic cells; format: cell-based, mouse
Procedure: as §5, §6

NB4 cells [6] = assay: NB4 cell apoptosis (Annexin V flow cytometry); format: cell-based, human
Procedure: (§7) NB4 cells, a line that stably carries the PML/RAR-α fusion protein of acute promyelocytic leukemia^71, were maintained in RPMI1640 medium, which was supplemented with 10% fetal bovine serum and 1% of penicillin-streptomycin, at 37° C. in 5% CO2 atmosphere. Cultures were established at an initial density of 10^5 cells/ml in the presence or absence of drugs at various concentrations. Cellular proliferation was measured by assessment of ^3 H-thymidine incorporation. Aliquots (180 μl) from each culture were placed into 96-well plates in triplicate after 20 hrs of incubation, and 0.5 μCi of ^3 H-thymidine in 20 μl of medium was added to each well. […] The proportion of cells undergoing apoptosis was determined by Annexin V staining^72. Aliquots (1 ml) from each culture were harvested after 48 hrs incubation and the cells were stained with fluorescein isothiocyanate (FITC)-conjugated Annexin V and propidium iodide, according to the manufacturer's instructions (PharMingen, San Diego, Calif.). Annexin V and propidium iodide positivity were analyzed by flow cytometry (Becton-Dickinson, Mountainview, Calif.). Cell viability was measured after 4 days of incubation by using trypan blue exclusion. Cellular differentiation was evaluated at day 4 of incubation using both an assay for nitroblue tetrazolium (NBT) reduction and expression of CD11b (a cell surface differentiation antigen)^73. Briefly, 10^6 cells were harvested and incubated with 0.1% NBT solution in the presence of 12-o-tetradecanoylphorbol 13-acetate (TPA) (0.1 μg/ml) for 1 hr. The pellet of the mixture was then resuspended with 0.04 M HCl/10% SDS and kept at room temperature for 24 hrs. […] For CD11b expression, 10^6 cells were incubated with FITC-conjugated CD11b monoclonal antibody (PharMingen). A FITC-conjugated isotype was used as background control. Expression of CD11b, including percentage of positive cells and the fluorescence intensity, was determined by using flow cytometry (Becton Dickinson).

NB4 cells [7] = assay: NB4 cell differentiation (CD11b expression and NBT reduction); format: cell-based, human
Procedure: as §7

[8] = system: myelodysplasia, myeloid leukemia and solid tumors; details: human, in vivo; cited from earlier work
NB4 cells [9] = assay: NB4 cell viability (trypan blue exclusion); format: cell-based, human; details: phenylbutyrate 10 mM, 4 days of culture
Procedure: NB4 cells, a line that stably carries the PML/RAR-α fusion protein of acute promyelocytic leukemia^71, were maintained in RPMI1640 medium, which was supplemented with 10% fetal bovine serum and 1% of penicillin-streptomycin, at 37° C. in 5% CO2 atmosphere. Cultures were established at an initial density of 10^5 cells/ml in the presence or absence of drugs at various concentrations. Cellular proliferation was measured by assessment of ^3 H-thymidine incorporation. Aliquots (180 μl) from each culture were placed into 96-well plates in triplicate after 20 hrs of incubation, and 0.5 μCi of ^3 H-thymidine in 20 μl of medium was added to each well. […] The proportion of cells undergoing apoptosis was determined by Annexin V staining^72. […] Annexin V and propidium iodide positivity were analyzed by flow cytometry (Becton-Dickinson, Mountainview, Calif.). Cell viability was measured after 4 days of incubation by using trypan blue exclusion. Cellular differentiation was evaluated at day 4 of incubation using both an assay for nitroblue tetrazolium (NBT) reduction and expression of CD11b (a cell surface differentiation antigen)^73. […] The optical density was measured at 540 nm. […] Expression of CD11b, including percentage of positive cells and the fluorescence intensity, was determined by using flow cytometry (Becton Dickinson).

[10] = system: acetylated histones H3 and H4; assay: Histone hyperacetylation in patient's blood and bone marrow mononuclear cells (Western, immunofluorescence); format: in vivo, human
Procedure: Hyperacetylation was detected using antiacetylated H3 or H4 antibodies reacting with histones that were acid-extracted from nucleated cells in peripheral blood before (lane 1) and 2, 4 and 6 hours (lanes 2 to 4) after initiation of the phenylbutyrate infusion, and from bone marrow before (lane 5) and after (lane 6) completion of the infusion. The parallel gel stained with Coomassie blue is a loading control.
Mononuclear cells from the patient's blood and bone marrow were isolated by density centrifugation and were applied on slides by cytospin. The slides were fixed in 95% ethanol/5% acetic acid for 1 min, permeabilized and blocked in 10% goat serum/1% BSA/0.3% Triton X-100/PBS for 40 min. The slides were then incubated with anti-acetylated histone H4 antibody (Upstate Biotechnology, Inc., Lake Placid, N.Y.) for 1 hr. A Texas-red-conjugated IgG was used as a secondary antibody to reveal the positivity; staining with 4',6-diamidino-2-phenylindole (DAPI) was used to reveal nuclei.
Nuclei from separated blood and bone marrow mononuclear cells were isolated by lysis in buffer containing 10 mM Tris-HCl pH 6.5, 50 mM sodium bisulfite, 1% Triton X-100, 10 mM MgCl2, 8.6% sucrose and Dounce homogenization. Histones were isolated by acid extraction^74. Isolated histones ([…]) were then separated on 15% SDS-PAGE minigels (Bio-Rad, Hercules, Calif.) and transferred to nitrocellulose (Schleicher and Schuell, Keene, N.H.). Hyperacetylated histones were detected by antibodies that specifically recognize the hyperacetylated forms of histone H4 and histone H3 (Upstate Biotechnology) and were visualized by chemiluminescence (Pierce, Rockford, Ill.). As a control for the amount of protein loading, parallel gels were stained with Coomassie blue.

NB4 cells [11] = assay: NB4 cell proliferation (3H-thymidine incorporation); format: cell-based, human
Procedure: as §7

[12] = Plasma concentrations of phenylbutyrate during clinical infusion; format: in vivo, human
Excerpt: During the post-remission treatment course, blood specimens collected on heparin were serially obtained before and 2, 4, and 6 hrs following a 2-hour infusion of phenylbutyrate for determination of histone acetylation levels in leukocytes.

[13] = Trichostatin A alone (not shown)
[14] = retinoic acid 10^-6 M with Trichostatin A 150 nM, 36 hours

CC(=O)O[C@H]1C(=O)[C@@]2(C)[C@H]([C@H](OC(=O)c3ccccc3)[C@]3(O)C[C@H](OC(=O)[C@H](O)[C@@H](NC(=O)c4ccccc4)c4ccccc4)C(C)=C1C3(C)C)[C@]1(OC(C)=O)CO[C@@H]1C[C@@H]2O [Paclitaxel]
Response [1]: Progression

CC(/C=C/C(=O)NO)=C\[C@@H](C)C(=O)c1ccc(N(C)C)cc1 [Trichostatin A]
transcriptional effect [2, 13]: negligible transcriptional effects | transactivation of reporter / reversal of transcriptional repression [2, 14]: reverted the transcriptional repression | transcriptional effect [3, 13]: negligible transcriptional effects | transactivation of reporter / reversal of transcriptional repression [3, 14]: reverted the transcriptional repression | differentiation [4]: negligible differentiating effect | growth inhibition ([5]; Trichostatin A alone (5 ng/ml)): marked growth inhibitory effect

O=C(O)CCCc1ccccc1 [phenylbutyrate, sodium phenylbutyrate]
apoptosis (NB4 cells [6]; phenylbutyrate 0.08 mM): no effect | apoptosis (NB4 cells [6]; phenylbutyrate 0.4 mM): no effects on other parameters | induction of apoptosis (NB4 cells [6]; phenylbutyrate 2 mM, 2 days): 15% | apoptosis (NB4 cells [6]; phenylbutyrate 10 mM): induced marked apoptosis | differentiation (NB4 cells [7]; phenylbutyrate 0.08 mM): no effect | differentiation (NB4 cells [7]; phenylbutyrate 0.4 mM): no effects on other parameters | differentiation (NB4 cells [7]; phenylbutyrate 2 mM): little effect upon differentiation | clinical usefulness [8]: has not been clinically useful | viable cells (NB4 cells [9]): no viable cells remained after 4 days of culture | magnitude of hyperacetylation (Western analysis) ([10]; 6 hours after starting the infusion): greatly diminished | acetylated histone H4 (immunofluorescence staining of nuclei) ([10]; peripheral blood cells, 6 hours after starting the infusion (approximately 4 hours after discontinuing the drug)): hyperacetylation was still visually evident | percentage of positive staining cells and staining intensity, acetylated histone H4 ([10]; peripheral blood mononuclear cells 0, 2, 4, 6 hours after infusion): progressively increases from baseline up to 6-hours | levels of acetylated H3 and H4 (Western blot) ([10]; peripheral blood mononuclear cells, two hours after beginning the phenylbutyrate infusion): markedly increased | proliferation (NB4 cells [11]; phenylbutyrate 0.08 mM): no effect | proliferation (NB4 cells [11]; phenylbutyrate 0.4 mM): slight growth inhibition | proliferation (NB4 cells [11]; phenylbutyrate 2 mM): induced growth inhibition | proliferation (NB4 cells [11]; phenylbutyrate 10 mM): completely inhibited proliferation | clinical achievability of concentration ([12]; 10 mM): not clinically achievable | Cmax ([12]; human, plasma, 150 mg/kg, patient, intravenous infusion, read-out: peak plasma levels transiently attained after completing the drug infusion): ~2000 µM

CC1=C(/C=C/C(C)=C/C=C/C(C)=C/C(=O)O)C(C)(C)CCC1 [retinoic acid, all-trans-retinoic acid]
growth inhibition ([5]; retinoic acid 10^-7 M and 10^-6 M): little if no effects | growth inhibition ([5]; retinoic acid 10^-7 M and 10^-6 M, listed as Retinoic acid): minimal
